A word on the IC50: it is the concentration that inhibits the measured activity by half.

This passage reports IC50 results from patent publication US10065950B2, “Substituted thiazoles as HIV integrase inhibitors” (Japan Tobacco Inc., priority 2010, dated 2018).

In the assay the target is HIV-1 pNL4-3 integrase (Human immunodeficiency virus type 1 group M subtype B (isolate NY5) (HIV-1), UniProt P12497). As to the kind of experiment: Determination of enzyme (HIV integrase) inhibitory activity. The settings on record: calculated from inhibition rate (fluorescence). The class given is biochemical. The gist of the method:
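Full-length pNL4-3 integrase from E. coli (0.75 μM stock) reacted 60 min at 37° C with compound and biotinylated donor DNA bound to streptavidin plates, in MOPS buffer with 5 mM MgCl2 and 10% DMSO. Digoxigenin-labelled target DNA (25 nM stock) then added for 20 min; strand transfer read by peroxidase anti-digoxigenin fluorescence (Ex 325/Em 420 nm).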
With `CC(C)N1C(=O)c2c(O)c(=O)c(-c3nnc(Cc4ccc(F)cc4F)s3)cn2CC1C(=O)N(C)C` (centres unmarked) [Example 53], the IC50 was 10 nM. In the case of `CC(C)[C@H]1Cn2cc(-c3nnc(Cc4ccc(F)cc4)s3)c(=O)c(O)c2C(=O)N1C(C)C` [Example 224], the half-maximal inhibitory concentration (IC50) is 7.3 nM. The result for `CC(C)N1C[C@H](C(C)(C)C)n2cc(-c3nnc(Cc4ccc(F)cc4)s3)c(=O)c(O)c2C1=O` [Example 193] reads 11 nM; that for `COC1CN(C(=O)[C@@]2(C)CN(CC3CC3)C(=O)c3c(O)c(=O)c(-c4ncc(Cc5ccc(F)cc5)s4)cn32)C1` [Example 262], 10 nM.

`CC(C)N1CC(C)(C(=O)O)n2cc(-c3ncc(Cc4ccc(F)cc4)s3)c(=O)c(O)c2C1=O` (centres unmarked) [Example 112]: the IC50 was 19 nM. The result for `COCCOCC1(C)CN(C(C)C)C(=O)c2c(O)c(=O)c(-c3ncc(Cc4ccc(F)cc4)s3)cn21` (centres unmarked) [Example 110] reads 23 nM; that for `CC[C@@H]1Cn2cc(-c3ncc(Cc4ccc(F)cc4)s3)c(=O)c(O)c2C(=O)N1CC` [Example 327], 5.9 nM; that for `COC[C@H]1CN(C(C)(C)C)C(=O)c2c(O)c(=O)c(-c3nnc(Cc4ccc(F)cc4F)s3)cn21` [Example 131], 13 nM. As for `CCN1C(=O)c2c(O)c(=O)c(-c3nnc(Cc4ccc(F)cc4)s3)cn2[C@@H](C)[C@@H]1COC` [Example 298], the figure is 9 nM. The result for `CC(C)N1CC(CC(=O)N2CCOCC2)n2cc(-c3ncc(Cc4ccc(F)cc4F)s3)c(=O)c(O)c2C1=O` (centres unmarked) [Example 72] reads 11 nM; that for `COC[C@H]1CN(C(C)C)C(=O)c2c(O)c(=O)c(-c3nnc(Cc4ccc(OC)cc4)s3)cn21` [Example 240], 52 nM; that for `CC(C)N1C(=O)c2c(O)c(=O)c(-c3nnc(Cc4ccc(F)cc4)s3)cn2C[C@@H]1C` [Example 233], 6.4 nM. As for `COC[C@@H]1Cn2cc(-c3nnc(Cc4ccc(F)c(F)c4)s3)c(=O)c(O)c2C(=O)N1C(C)C` [Example 150], the IC50 was 6.1 nM. As for `CC(C)N1C[C@@H](C)n2cc(-c3nnc(Cc4ccc(F)cc4F)s3)c(=O)c(O)c2C1=O` [Example 132], the figure is 9.1 nM; as for `COC[C@@H]1CN(C(C)C)C(=O)c2c(O)c(=O)c(-c3nnc(Cc4ccc(F)cc4F)s3)cn21` [Example 87], 7.7 nM. As for `CC[C@@H]1Cn2cc(-c3nnc(Cc4ccc(F)cc4)s3)c(=O)c(O)c2C(=O)N1CC1CC1` [Example 303], the figure is 5.8 nM; as for `CC(C)N1CC(CN2C(=O)c3ccccc3C2=O)n2cc(-c3ncc(Cc4ccc(F)cc4F)s3)c(=O)c(O)c2C1=O` (centres unmarked) [Example 65], 13 nM; as for `COC[C@@H]1[C@H](C)N(C(C)C)C(=O)c2c(O)c(=O)c(-c3nnc(Cc4ccc(F)cc4)s3)cn21` [Example 356], 8.9 nM. As for `COC[C@H]1CN(C(C)C)C(=O)c2c(O)c(=O)c(-c3nnc(Cc4c(F)cc(F)cc4OC)s3)cn21` [Example 220], the figure is 6.8 nM.

Turning to `CCNC(=O)[C@@]1(C)CN(C(C)C)C(=O)c2c(O)c(=O)c(-c3nnc(Cc4ccc(F)cc4F)s3)cn21` [Example 173], the 50% inhibitory concentration (IC50) is 16 nM. On to `CCN1C[C@@](C)(C(=O)N(C)C)n2cc(-c3ncc(Cc4ccc(F)cc4)s3)c(=O)c(O)c2C1=O` [Example 248], for which the IC50 was 14 nM. The result for `CC(C)(C)N1C[C@](C)(C(=O)N2CCCC2)n2cc(-c3nnc(Cc4ccc(F)cc4)s3)c(=O)c(O)c2C1=O` [Example 188] reads 18 nM. As for `COC1CN(C(=O)CC2CN(C(C)C)C(=O)c3c(O)c(=O)c(-c4ncc(Cc5ccc(F)cc5F)s4)cn32)C1` (centres unmarked) [Example 272], the figure is 8.9 nM; as for `CC(C)N1C[C@@](C)(C(=O)N2CCCC2)n2cc(-c3ncc(Cc4ccc(F)cc4)s3)c(=O)c(O)c2C1=O` [Example 225], 18 nM. The result for `CNC(=O)C1(C)CN(C(C)C)C(=O)c2c(O)c(=O)c(-c3ncc(Cc4ccc(F)cc4)s3)cn21` (centres unmarked) [Example 104] reads 15 nM; that for `COCCOC[C@H]1CN(C(C)C)C(=O)c2c(O)c(=O)c(-c3nnc(Cc4ccc(F)c(F)c4)s3)cn21` [Example 155], 10 nM. As for `CC(C)N1CC(C)(C(=O)N2CCCC2)n2cc(-c3ncc(Cc4ccc(F)cc4)s3)c(=O)c(O)c2C1=O` (centres unmarked) [Example 109], the IC50 was 21 nM.

Turning to `CC(C)N1C(=O)c2c(O)c(=O)c(-c3nnc(Cc4ccc(F)cc4F)s3)cn2C[C@H]1CN(C)C(=O)C(C)(C)C` [Example 184], the IC50 is 6 nM. The result for `CCOC[C@@H]1Cn2cc(-c3ncc(Cc4ccc(F)cc4)s3)c(=O)c(O)c2C(=O)N1CC1CC1` [Example 218] reads 6.5 nM; that for `CCN1C(=O)c2c(O)c(=O)c(-c3nnc(Cc4ccc(F)cc4)s3)cn2[C@H](C)[C@H]1COC` [Example 305], 9.5 nM; that for `COCCOC[C@@H]1CN(CC(C)C)C(=O)c2c(O)c(=O)c(-c3nnc(Cc4ccc(F)cc4F)s3)cn21` [Example 47], 12 nM. Regarding `COC1CN(C(=O)[C@@]2(C)CN(C(C)C)C(=O)c3c(O)c(=O)c(-c4nnc(Cc5ccc(F)cc5)s4)cn32)C1` [Example 209], the IC50 was 12 nM. As for `CNC(=O)CC1CN(C(C)C)C(=O)c2c(O)c(=O)c(-c3ncc(Cc4ccc(F)cc4F)s3)cn21` (centres unmarked) [Example 34], the figure is 8.2 nM; as for `COCCOC[C@@]1(C)CN(C2CC2)C(=O)c2c(O)c(=O)c(-c3nnc(Cc4ccc(F)cc4)s3)cn21` [Example 297], 20 nM; as for `CCNC(=O)[C@@]1(C)CN(C(C)(C)C)C(=O)c2c(O)c(=O)c(-c3nnc(Cc4ccc(F)cc4)s3)cn21` [Example 189], 20 nM. As for `CO[C@H](C)[C@@H]1CN(C(C)C)C(=O)c2c(O)c(=O)c(-c3nnc(Cc4ccc(F)cc4)s3)cn21` [Example 338], the figure is 7.1 nM; as for `CC(C)N1CC(C)(C(=O)N(C)C)n2cc(-c3ncc(Cc4ccc(F)cc4)s3)c(=O)c(O)c2C1=O` (centres unmarked) [Example 107], 19 nM; as for `CC(C)N1C[C@H](Cn2cncn2)n2cc(-c3nnc(Cc4ccc(F)cc4)s3)c(=O)c(O)c2C1=O` [Example 358], 12 nM.

For `CC(C)N1C(=O)c2c(O)c(=O)c(-c3nnc(Cc4ccc(F)cc4F)s3)cn2C[C@H]1CNS(C)(=O)=O` [Example 158], the IC50 was 5.4 nM. Regarding `COC[C@H]1CN(C(C)C)C(=O)c2c(O)c(=O)c(-c3nnc(Cc4ccc(F)cc4C)s3)cn21` [Example 231], the IC50 is 11 nM. The result for `CCNC(=O)[C@]1(C)CN(CC)C(=O)c2c(O)c(=O)c(-c3ncc(Cc4ccc(F)cc4)s3)cn21` [Example 249] reads 12 nM; that for `CC(C)N1CC(C(=O)N(C)C)n2cc(-c3ncc(Cc4ccc(F)cc4F)s3)c(=O)c(O)c2C1=O` (centres unmarked) [Example 26], 7.6 nM. As to `CO[C@H]1CCN(C(=O)[C@@]2(C)CN(C(C)C)C(=O)c3c(O)c(=O)c(-c4nnc(Cc5ccc(F)cc5)s4)cn32)C1` [Example 212], the IC50 was 14 nM. On to `COCC1Cn2cc(-c3ncc(Cc4ccc(F)cc4F)s3)c(=O)c(O)c2C(=O)N1CC(C)C` (centres unmarked) [Example 62], for which the IC50 was 9.2 nM.

In the case of `CC(C)N1C[C@](C)(C(=O)N(C)C)n2cc(-c3nnc(Cc4ccc(F)cc4F)s3)c(=O)c(O)c2C1=O` [Example 169], the IC50 is 12 nM. Take `CC(C)N1C(=O)c2c(O)c(=O)c(-c3nnc(Cc4ccc(F)cc4F)s3)cn2CC1CC(=O)N(C)C` (centres unmarked) [Example 75]: the IC50 is 9.1 nM.

Turning to `CCN1C(=O)c2c(O)c(=O)c(-c3nnc(Cc4ccc(F)cc4)s3)cn2[C@@H](COC)[C@H]1C` [Example 258], the IC50 was 9.3 nM. The result for `COCCOC[C@H]1Cn2cc(-c3nnc(Cc4ccc(F)cc4F)s3)c(=O)c(O)c2C(=O)N1CC(C)C` [Example 55] reads 21 nM; that for `CC(C)N1C(=O)c2c(O)c(=O)c(-c3nnc(Cc4ccc(F)cc4)s3)cn2C[C@@]1(C)C(=O)N1CCC1` [Example 310], 9.9 nM; that for `CC(C)CNC(=O)C1CN(C(C)C)C(=O)c2c(O)c(=O)c(-c3ncc(Cc4ccc(F)cc4F)s3)cn21` (centres unmarked) [Example 32], 7.7 nM. As to `CC(C)N1C(=O)c2c(O)c(=O)c(-c3nnc(Cc4ccc(F)cc4F)s3)cn2CC1C#N` (centres unmarked) [Example 64], the IC50 was 6.1 nM.

With `CCNC(=O)[C@@]1(C)CN([C@H](C)C2CC2)C(=O)c2c(O)c(=O)c(-c3ncc(Cc4ccc(F)cc4)s3)cn21` [Example 283], the IC50 was 18 nM. Take `CC(C)N1C[C@@](C)(C(=O)NCC2CC2)n2cc(-c3ncc(Cc4ccc(F)cc4)s3)c(=O)c(O)c2C1=O` [Example 246]: the IC50 is 8.4 nM. As for `CCN1C(=O)c2c(O)c(=O)c(-c3nnc(Cc4ccc(F)cc4)s3)cn2[C@@H](COC)[C@@H]1C` [Example 284], the figure is 11 nM; as for `CCN1C(=O)c2c(O)c(=O)c(-c3ncc(Cc4ccc(F)cc4)s3)cn2C[C@H]1C(C)C` [Example 329], 6.1 nM.

Turning to `CC(C)N1CC(CC(=O)O)n2cc(-c3ncc(Cc4ccc(F)cc4F)s3)c(=O)c(O)c2C1=O` (centres unmarked) [Example 33], the IC50 is 6.2 nM.

With `CC(C)N1C(=O)c2c(O)c(=O)c(-c3nnc(Cc4ccc(F)cc4)s3)cn2C[C@H]1CO` [Example 354], the IC50 was 8 nM. As for `CCNC(=O)[C@@]1(C)CN(C(C)C)C(=O)c2c(O)c(=O)c(-c3ncc(Cc4ccc(F)cc4)s3)cn21` [Example 239], the figure is 16 nM. The result for `CC(C)N1C(=O)c2c(O)c(=O)c(-c3nnc(Cc4ccc(F)cc4)s3)cn2C[C@@]1(C)C(=O)N(C)C` [Example 315] reads 8.8 nM; that for `CC(C)N1CC(C)(C(=O)N(C)C)n2cc(-c3ncc(Cc4ccc(F)cc4F)s3)c(=O)c(O)c2C1=O` (centres unmarked) [Example 152], 5.9 nM. Consider `CCN1C(=O)c2c(O)c(=O)c(-c3nnc(Cc4ccc(F)cc4)s3)cn2C[C@@H]1C(C)C` [Example 287], for which the IC50 was 8 nM.

For `CCNC(=O)C1CN(C(C)C)C(=O)c2c(O)c(=O)c(-c3ncc(Cc4ccc(F)cc4F)s3)cn21` (centres unmarked) [Example 25], the IC50 is 11 nM.
